In PubChem BioAssay (NCI):
“And” between values parts separate entries of the source, which are not always exact repeats. Equal entries are not always repeated.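 Cultured in 96-well plates, cells were exposed to test compound for 48 hours across five concentrations. GI50 is the concentration that inhibits growth by half. TGI: concentration producing complete growth inhibition.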

Experiments:
Assay in all cases: NCI tumour cell line growth inhibition, 48 h
ACHN renal = test system: ACHN renal
HCT-116 colon = test system: HCT-116 colon
HL-60(TB) leukemia = test system: HL-60(TB) leukemia
HS 578T breast = test system: HS 578T breast
HT29 colon = test system: HT29 colon
MALME-3M melanoma = test system: MALME-3M melanoma
MDA-MB-231 breast = test system: MDA-MB-231 breast
SK-OV-3 ovarian = test system: SK-OV-3 ovarian
U251 CNS = test system: U251 CNS
UACC-257 melanoma = test system: UACC-257 melanoma

Compound | GI50 (ACHN renal) | TGI (ACHN renal) | GI50 (HCT-116 colon) | TGI (HCT-116 colon) | GI50 (HL-60(TB) leukemia) | TGI (HL-60(TB) leukemia) | GI50 (HS 578T breast) | TGI (HS 578T breast) | GI50 (HT29 colon) | TGI (HT29 colon) | GI50 (MALME-3M melanoma) | TGI (MALME-3M melanoma) | GI50 (MDA-MB-231 breast) | TGI (MDA-MB-231 breast) | GI50 (SK-OV-3 ovarian) | TGI (SK-OV-3 ovarian) | GI50 (U251 CNS) | TGI (U251 CNS) | GI50 (UACC-257 melanoma) | TGI (UACC-257 melanoma)
COc1ccc(-c2c(-c3cc(OC)c(OC)c(OC)c3)noc2N)cc1 | < 0.0141 µM | 43.8 µM | < 0.01 µM | > 32 µM | 0.0215 µM | 0.0589 µM | < 0.0104 µM | > 75.9 µM | < 0.0144 µM | 0.796 µM | 13.4 µM | 56.8 µM | 0.06 µM | 90.1 µM | < 0.011 µM | 16.5 µM | < 0.0165 µM | 12.6 µM | < 0.01 µM | > 100 µM
O=C(CCC(C(=O)c1ccccc1)c1ccccc1)c1ccccc1 (stereo not drawn) | 31.3 µM | > 100 µM | 6.45 µM | > 100 µM | 4.72 µM | 55.9 µM | 11.8 µM | > 100 µM | 4.21 µM | > 100 µM | 5.51 µM | 63.8 µM | 23.4 µM | > 100 µM | 78.8 µM | > 100 µM | 13.4 µM | > 100 µM | 17.5 µM | > 100 µM
COC(=O)[C@H](Cc1ccc(O)cc1)NC(=O)[C@@H](OC)[C@@H]1Cc2cc3cc(OC4CC(OC5CC(O)C(O)C(C)O5)C(O)C(C)O4)c(C)c(O)c3c(O)c2C(=O)[C@H]1OC1CC(OC2CC(OC3CC(C)(O)C(O)C(C)O3)C(O)C(C)O2)C(O)C(C)O1 (stereo partly drawn) | 0.405 µM | > 25 µM | 0.0175 µM | > 25 µM | 0.614 µM | > 25 µM | 0.0654 µM | 5.36 µM | 0.102 µM | > 25 µM | 0.0397 µM | 0.492 µM | 0.196 µM | > 25 µM | 0.185 µM | > 25 µM | 0.113 µM | > 25 µM | 0.124 µM | 4.39 µM
C/C(=C\COc1c2c(cc3c1CCO3)OC1(C=C2)OC(CC/C(C)=C/COc2c3ccoc3cc3oc(=O)ccc23)C(C)(C)O1)CCC(O)C(C)(C)O (stereo not drawn) | 15 µM | > 100 µM | 18.4 µM | > 100 µM | 3.61 µM | 20.9 µM | 27.3 µM | > 100 µM | 22.4 µM | > 100 µM | 68.7 µM | > 100 µM | 7.59 µM | > 100 µM | > 100 µM | > 100 µM | 44.4 µM | > 100 µM | 25.3 µM | > 100 µM
CCCCCCCCCCCCCCCCOP(=O)(O)OP(=O)(O)OCC1OC(n2ccc(N)nc2=O)C(O)C1O (stereo not drawn) |  | > 100 µM |  | > 100 µM |  | > 100 µM |  | > 100 µM |  | > 100 µM | > 100 µM and 46.7 µM | > 100 µM |  | > 100 µM | > 100 µM and 48.7 µM | > 100 µM |  | > 100 µM |  | > 100 µM
COc1ccc2c(c1OC)OCC(CN(C)C)C2=O (stereo not drawn) |  | 31.7 µM |  | 31.4 µM |  | 7.14 µM |  | > 87.4 µM |  | 40.1 µM |  | 34.8 µM |  | 34.6 µM |  | > 57.3 µM |  | 34.1 µM |  | 30.8 µM
CC1=C([Te]c2ccc(O)cc2)C(=O)c2ccccc2C1=O | 1.54 µM | 3.85 µM | 0.715 µM | 2.05 µM | 1.83 µM | 5 µM | 1.83 µM | 7.6 µM | 0.396 µM | 1.55 µM | 2.79 µM | 7.12 µM | 1.89 µM | 5.4 µM | 1.66 µM | 4.52 µM | 1.31 µM | 7.28 µM | 2.91 µM | 10.4 µM
Cc1cn2c(/C=N/N=C(N)N)c(-c3cccnc3)nc2s1 | 11.5 µM | 25.8 µM | 8.62 µM | 37.8 µM | 3.8 µM | 53.8 µM | 23.5 µM | 47.1 µM | 4.18 µM | 16.1 µM | 8.14 µM | 21.4 µM | 10.1 µM | 24.2 µM | 15.9 µM | 33.3 µM | 10.2 µM | 23.7 µM | 16.5 µM | 35.4 µM
Cc1ncsc1-c1ccc(CNC(=O)[C@@H]2C[C@@H](O)CN2C(=O)[C@@H](NC(=O)C2(C#N)CC2)C(C)(C)C)cc1 | > 100 µM | > 100 µM | > 100 µM | > 100 µM | > 100 µM | > 100 µM | 50.5 µM | > 100 µM | > 100 µM | > 100 µM | > 100 µM | > 100 µM | > 100 µM | > 100 µM | > 100 µM | > 100 µM | > 100 µM | > 100 µM | > 100 µM | > 100 µM
CCc1ccc2c(c1)N(CCO)C1=C(C(=O)OC1)C2c1cccc(Cl)c1 (stereo not drawn) | 1.24 µM | 31.6 µM | 0.498 µM | 13.1 µM | 0.482 µM | 8.82 µM | 1.37 µM | 32.2 µM | 0.345 µM | 11.1 µM | 2.82 µM | 27.4 µM | 1.66 µM | 15.3 µM | 0.663 µM | 10.7 µM | 0.499 µM | 15.5 µM | 0.772 µM | 23.6 µM
CCCCN(CCCC)CCCn1c(=O)c2c3ccccc3n(C)c2n2nnc(-c3ccccc3)c12 | 34.7 µM | > 100 µM | 18.4 µM | > 100 µM | 2.54 µM | 41.7 µM | 39.9 µM | > 100 µM | 7.72 µM | 36.3 µM | 28.4 µM | 90 µM | 36.6 µM | > 100 µM | 30.3 µM | > 100 µM | 32.9 µM | > 100 µM | 28.7 µM | 82.5 µM
CC(=O)C1(N=Nc2ccc(S(N)(=O)=O)cc2)CCOC1=O (stereo not drawn) |  | > 100 µM |  | > 100 µM |  | > 100 µM |  | > 100 µM |  | > 100 µM |  | > 100 µM |  | > 100 µM |  | > 100 µM |  | > 100 µM |  | > 100 µM
COC(=O)/C=C/c1cn(C(C)=O)c2ccc(Br)cc12 | 29.4 µM | > 100 µM | 32.6 µM | > 100 µM | 15.3 µM | > 100 µM | 22 µM | 76.2 µM | 27.5 µM | > 100 µM | 24.9 µM | > 88.8 µM | 11.8 µM | 29.5 µM | 32.4 µM | > 100 µM | 28.2 µM | > 100 µM | 35.6 µM | > 100 µM
O=C(Nc1nc2ccc(F)cc2s1)c1cccnc1Nc1ccc(Cl)cc1 | 3.08 µM | > 100 µM | 1.99 µM | > 29.2 µM | 1.6 µM | 5.8 µM | 2.1 µM | 7.54 µM | 3.1 µM | > 100 µM | 2.22 µM | > 27 µM | 1.88 µM | 5 µM | 2.49 µM | > 26.5 µM | 2.88 µM | > 100 µM | 0.677 µM | 
Cc1cc(O)cc(C)c1/C=C/c1cncc(-c2nn[nH]n2)c1 | > 25 µM | > 25 µM | > 25 µM | > 25 µM | > 25 µM | > 25 µM | > 25 µM | > 25 µM | > 25 µM | > 25 µM | > 25 µM | > 25 µM | > 25 µM | > 25 µM | > 25 µM | > 25 µM | > 25 µM | > 25 µM | > 25 µM | > 25 µM
COc1ccc(-c2nc(N3CCN(C(=O)C4CCCCC4)CC3)c3c4c(sc3n2)CCCC4)cc1 | 23.9 µM | > 100 µM | 34.2 µM | > 100 µM | 70.5 µM | > 100 µM | 24.7 µM | > 100 µM | > 100 µM | > 100 µM | 92.1 µM | > 100 µM | 19.4 µM | 82.8 µM | 25.2 µM | 71.7 µM | 37.9 µM | > 100 µM | > 100 µM | > 100 µM
CN(C)CCCNC(=O)c1cncnc1Nc1ccc(OCc2cccc(F)c2)c(Cl)c1 | 1.7 µM | 3.06 µM | 1.47 µM | 2.79 µM | 1.67 µM | 3.52 µM | 1.56 µM | 3.3 µM | 1.71 µM | 3.34 µM | 1.64 µM | 3.02 µM | 1.69 µM | 3.14 µM | 1.72 µM | 3.23 µM | 1.66 µM | 3.26 µM | 1.89 µM | 3.83 µM
COc1cc(O)c2c(c1)C(=O)c1cc3c(c(O)c1C2=O)C(OC1OC(C)C(O)C(O)C1OC)C(OC)C(C)(O)C3=O (stereo not drawn) | 2.4 µM | 12.4 µM | 1.63 µM and 0.665 µM | 6.56 µM and 5.88 µM | 3.44 µM and 6.26 µM | 17.6 µM and 24.3 µM | 3.34 µM | 19.5 µM | 2.44 µM | 11.8 µM and 8.61 µM |  | 2.54 µM and 2.65 µM | 2.66 µM | 9.2 µM | 5.2 µM | 52 µM and 34.8 µM | 2.56 µM | 13.2 µM and 11.8 µM | 1.98 µM | 5.25 µM and 2.5 µM
CCOC(=O)/C(=C(/C)NCC(C)C)c1cc(O)c(O)c2c(C)cc(=O)[nH]c12 | 7.99 µM | > 100 µM | 3.19 µM | 30.6 µM | 2.63 µM | > 100 µM | 13.4 µM | 57.3 µM | > 100 µM | > 100 µM | 11.4 µM | 70.8 µM | 4 µM | 94.1 µM | 13 µM | > 100 µM | 8.68 µM | 50.9 µM | 14.3 µM | > 100 µM
O=c1oc2ccc(-n3c(=O)c4ccccc4c4ccccc4c3=O)cc2c2ccccc12 |  | > 100 µM |  | > 100 µM |  | > 100 µM |  | 81 µM |  | > 100 µM |  | > 100 µM |  | > 100 µM |  | > 100 µM |  | 63.6 µM |  | > 100 µM
COc1cc(-c2ncn(/C=C\C(=O)OC(C)C)n2)cc(C(F)(F)F)c1 | 0.0605 µM and 0.0657 µM | 12.9 µM and 13 µM | 0.0528 µM and 0.0688 µM | 1.58 µM and 11.3 µM | 0.0515 µM and 0.051 µM | 4.58 µM and 4.07 µM | 0.254 µM and 0.243 µM | > 65.9 µM and 6.71 µM | 0.0474 µM and 0.0896 µM | 12.3 µM and 3.01 µM | 0.149 µM and 0.147 µM | 12.9 µM and 15.3 µM | 0.065 µM and 0.0398 µM | 4.81 µM and 7.12 µM | 0.357 µM and 0.179 µM | 16.9 µM and 15.1 µM | 0.0335 µM and 0.0683 µM | 5.24 µM and 11.4 µM | 0.142 µM and 0.136 µM | 11.8 µM and 14.4 µM
O=c1c2ccccc2c2ccccc2c(=O)n1Cc1ccc2c(c1)OCO2 |  | > 100 µM |  | > 100 µM |  | 52 µM |  | > 100 µM |  | > 100 µM |  | > 100 µM |  | > 100 µM |  | > 100 µM |  | > 100 µM |  | > 100 µM
COc1cc(-c2nn(-c3cccc(NC(=O)c4ccc(N5CCOCC5)c(C(F)(F)F)c4)c3)cc2-c2ccncc2)ccc1Cl | 0.585 µM | > 100 µM | 0.299 µM | > 32.9 µM | 0.233 µM |  | 0.257 µM |  | 0.466 µM | 2.19 µM | 0.0769 µM | 1.54 µM | 0.384 µM | 3.54 µM | 0.345 µM | 5.34 µM | 0.36 µM | 4.32 µM | 0.496 µM | 6.86 µM
